From patent publication US9120877B2, “Sulfated polysaccharide compound and the preparation and use thereof” (PARNELL TECHNOLOGIES PTY LTD, priority 2008, dated 2015)

Test: Stability (degradation and discolouration) of injectable aqueous GXS formulation with antioxidants without refrigeration
Assay type: physicochemical
Details: antioxidant in GXS injectable formulation, room temperature
Excerpt: In one arrangement, the injectable formulation includes a suitable antioxidant to enable the aqueous formulation to remain substantially stable (that is to resist discolouration and degradation) without refrigeration. Patent WO 2007/123800 claims a PPS formulation with “an antioxidant in the group metabisulfite, sodium bisulfate and ascorbate in a concentration of about 0.02% w/v to about 5.0% w/v” is stable without refrigeration. […] This finding supports a conclusion that GXS is a distinct entity to prior art PPS extracted from xylan.

SMILES	Exemplary effective concentration to achieve substantial stability of GXS injectable formulation [% by weight/volume]
O=S([O-])O.[Na+] [Sodium bisulfite ACS Reagent, Sodium bisulfite]	0.5
O=S(=O)([O-])CO.[Na+] [Sodium hydroxymethane sulfonate]	1
O=S([O-])S(=O)(=O)[O-].[Na+].[Na+] [Sodium metabisulfite]	0.5
